The nature of series [1]: Solubility in acetate buffer (25 mM, pH 5), assayed by HPLC. Type of series: physicochemical. To be noted: acetate buffer 25 mM pH 5, 25° C.; for solubility at 1 day: acetate buffer, 25 °C, pH 5, aqueous buffer, thermodynamic from solid. As to the method: Form 1 (˜25 mg) and acetate buffer (25 mM, pH 5, 4 mL), prepared with and without sodium chloride (ionic strength adjusted to =0.1M), were placed in a glass vial which was sealed and placed on a laboratory rotator in a 25° C. incubator. After 1, 5, and 7 days the samples were filtered and assayed by HPLC.
Form 2 (˜25 mg) and acetate buffer (25 mM, pH 5, 4 mL), prepared with and without sodium chloride (ionic strength adjusted to =0.1M), were placed in a glass vial which was sealed and placed on a laboratory rotator in a 25° C. incubator. After 1, 5, and 7 days the samples were filtered and assayed by HPLC.

Series [2] can be described thus: Gravimetric vapor sorption (GVS) study. The series is classed as physicochemical. From the text:
FIG. 12 illustrates a GVS study of form 1 and form 2. […] This property of decreased hygroscopicity greatly aids in the preparation of solid pharmaceutical dosage forms.

Series [3] is described as follows: Solid held in equilibrium with its saturated acetone solution at 60° C. The series is classed as physicochemical. The conditions noted are these: 60° C. for 6 days.
A short description of series [4]: Drug substance stability of packaged polymorph under accelerated / long term storage conditions. To be noted: for degradation of packaged drug substance: double LDPE bag, heat sealed foil bag, HDPE container.
Description: Form 2 of 2-(5-bromo-4-(4-cyclopropylnaphthalen-1-yl)-4H-1,2,4-triazol-3-ylthio)acetate was tested under various conditions to determine drug substance stability. […] Packaging was in a double low density polyethylene plastic bags inside a HDPE container.

SMILES strings stand for the structures. Converted amounts (≈) assume the structure as drawn.

The record followed here is US9296709B2, “Manufacture of 2-(5-bromo-4-(4-cyclopropylnaphthalen-1-yl)-4H-1,2,4-triazol-3-ylthio)acetic acid” (ARDEA BIOSCIENCES, INC., priority 2012, dated 2016).

`O=C(O)CSc1nnc(Br)n1-c1ccc(C2CC2)c2ccccc12` [Form 1, 2-(5-bromo-4-(4-cyclopropylnaphthalen-1-yl)-4H-1,2,4-triazol-3-ylthio)acetic acid] had a solubility at 1 day in series [1] (Form 1, NaCl (I = 0.1), Day 1) of 300 µg/mL (≈ 741 µM). In addition, the “adsorbed at high humidity (GVS)” value in series [2] is on record as less than 0.2 % w/w. In addition, the “outcome of equilibration with saturated acetone solution” value in series [3] was “decomposition”.

As for `O=C(O)CSc1nnc(Br)n1-c1ccc(C2CC2)c2ccccc12` [Form 2, 2-(5-bromo-4-(4-cyclopropylnaphthalen-1-yl)-4H-1,2,4-triazol-3-ylthio)acetic acid], the solubility was 0.2441 (pH 4.83) mg/mL in series [1] (Form 2, NaCl (I = 0.1), Day5, sample pH 4.83); 0.2157 (pH 4.85) mg/mL in series [1] (Form 2, NaCl (I = 0.1), Day 7, sample pH 4.85); 0.1867 (pH 4.91) mg/mL in series [1] (Form 2, No NaCl, Day 1, sample pH 4.91); 0.1957 (pH 4.73) mg/mL in series [1] (Form 2, No NaCl, Day5, sample pH 4.73); 0.1337 (pH 4.79) mg/mL in series [1] (Form 2, No NaCl, Day 7, sample pH 4.79). In series [1] (Form 2, NaCl (I = 0.1), Day 1), the solubility at 1 day is 219 µg/mL (≈ 542 µM). Further, the “adsorbed at high humidity (GVS)” value in series [2] was less than 0.1 % w/w.

For `O=C([O-])CSc1nnc(Br)n1-c1ccc(C2CC2)c2ccccc12.[Na+]` [Form A, sodium 2-(5-bromo-4-(4-cyclopropylnaphthalen-1-yl)-4H-1,2,4-triazol-3-ylthio)acetate], the “stability in comparison to the amorphous solid state form of the carboxylic acid” value in series [4] is on record as “improvement over the solid state amorphous free acid”. Besides, the “degradation of packaged drug substance” value in series [4] (6 months, accelerated conditions 40° C.-75% RH) was “No degradation”; in series [4] (12 months, long term conditions 25° C.-60% RH), “no degradation”.
